In assay [1] the target is T1, 5-HT1A receptor (Rattus norvegicus, UniProt P19327).
T1 sequence (P19327 1-422): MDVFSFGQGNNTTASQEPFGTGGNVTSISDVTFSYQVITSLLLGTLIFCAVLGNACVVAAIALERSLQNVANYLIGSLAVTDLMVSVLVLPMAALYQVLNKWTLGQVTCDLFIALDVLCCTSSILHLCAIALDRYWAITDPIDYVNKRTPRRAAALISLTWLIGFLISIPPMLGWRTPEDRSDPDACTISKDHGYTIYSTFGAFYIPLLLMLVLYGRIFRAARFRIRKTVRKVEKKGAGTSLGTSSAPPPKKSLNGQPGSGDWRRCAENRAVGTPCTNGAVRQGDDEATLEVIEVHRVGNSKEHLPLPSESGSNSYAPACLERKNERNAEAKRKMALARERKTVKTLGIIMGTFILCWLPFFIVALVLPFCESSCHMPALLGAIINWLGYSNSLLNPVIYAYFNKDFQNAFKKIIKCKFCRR
Put plainly: 5-HT1A receptor binding test. How it is done:
The experiment was conducted according to the method of M. D. Hall et al (J. Neurochem. 44, 1685–1696 (1985)).
Cryopreserved rat hippocampus was homogenized in a 20-fold wet weight amount of 50 mM Tris-HCl buffer (pH 7.4), and the homogenate was centrifuged at 500×g for 10 min. The supernatant was centrifuged at 40000×g for 10 min and the sediment was incubated at 37° C. for 10 min, which was followed by centrifugation at 40000×g for 10 min. To the sediment was added a 20-fold amount of 50 mM Tris-HCl buffer (pH 7.4) and the mixture was homogenized, which was followed by centrifugation again at 40000×g for 10 min. 50 mM Tris-HCl buffer (pH 7.4, 100-fold volume) containing 1 mM MnCl2 was added to the sediment and the mixture was homogenized, which was used as a membrane solution. To a 96 well plate were successively added a test solution ([…]), (^3H)-8-OH-DPAT ((±)-8-hydroxy-2-(DL-N-propylamino)tetraline, Sigma, lot No. 57H4131) solution (final concentration 2 nM, […]) and the membrane solution (0.45 ml) preincubated at 37° C., and incubated at 37° C. for 12 min. After completion, the reaction mixture was filtered through a GF/B glass filter and the filter was washed 5 times with 50 mM Tris-HCl buffer (pH 7.4). The radioactivity left on the filter was measured with a Top Count. For total binding measurement, 0.005N hydrochloric acid ([…]) was used, and for the measurement of nonspecific binding, a test solution containing WAY-100635 (final concentration […]) instead of the test substance was used. The total binding and nonspecific binding were measured in quadruplicate, and the test substance was measured in duplicate.
The IC50 value was calculated by two-point interpolation and Ki value was calculated according to the following equation using Kd value obtained from each measurement. Ki=IC50/(1+C/Kd)
IC50: concentration of 50% binding inhibition
C: concentration of ligand

The target of assay [2] is T1, 5-HT1A receptor. As to the kind of experiment: Electrophysical evaluation of agonist/antagonist of 5-HT1A receptor (nystatin perforated patch clamp, dorsal raphe nuclei cell). Type of assay: cell-based. The arrangement: The isolated nerve cell (dorsal raphe nuclei cell) was subjected to nystatin perforated patch clamp method; endogenous in cells; host or cells: acutely dissociated dorsal raphe nuclei neurons of 2-week-old male Wistar rat. Conditions: 10^−7 mol/L, isolated rat dorsal raphe nuclei cell. How it is done:
The experiment followed the method of Katayama et al (Brain Res.; 745, 283–292, 1997).
The brain of 2-week-old male Wistar rat was extracted, and a brain thin section (thickness 350 μm) containing dorsal raphe nuclei was prepared using a microslicer. The brain thin section was treated in Ringer's solution containing pronase (0.4 mg/mL) and protease type X (0.25 mg/mL) at 30° C. for 25 min and 15 min, respectively, and the dorsal raphe nuclei region was micropunched out. The brain thin section punched out was subjected to pipetting in a culture dish filled with the Ringer's solution to isolate the nerve cell. The isolated nerve cell (dorsal raphe nuclei cell) was subjected to nystatin perforated patch clamp method (Akaike & Harata, Jpn. J. Physiol.; 44, 433–437, 1994) and the inward K^+ current induced by the test substance and the like was measured under membrane voltage-clamp condition (VH=−60 mV). For the measurement of the inward K^+ current via the 5-HT1A receptor, an extracellular solution and a patch pipette solution having the following compositions were used simultaneously. • extracellular solution (mmol/L): NaCl, 135; KCl, 20; MgCl2, 1; CaCl2, 2; D-glucose, 10; HEPES, 10; tetrodotoxin, 3×10^−4; LaCl3, 10 • patch pipette solution (mmol/L): KCl, 150; HEPES, 10
To the above-mentioned patch pipette solution was added nystatin. (Sigma, Lot No. 33H0762) to the final concentration of 75 μg/mL before the electric measurement.
The current response was measured with a voltage clamp amplifier (List Medical, L/M-EPC7), and the obtained results were recorded on a chart of a recticorder (Nihondenki Sanei, RECTIHORIZ-8K), digitized by a PCM recording device (NF electric Instruments, RP-882) and videotaped by a VCR (Panasonic, NV-G40).
The administration of the test substance and the like followed a Y-tube method (Murase et al., Brain Res.; 525, 84–91, 1990).
First, 8-OH-DPAT (10^−7 mol/L) was administered to the isolated nerve cell (dorsal raphe nuclei cell) obtained above, and the level of the inward K^+ current response was measured.
8-OH-DPAT was washed out for 2 min from the above-mentioned cells and the test substance and pindolol (reference substance which is an antagonist) were administered for 1 min, and the level of the inward K^+ current response by each of them was measured. From immediately after administration of the test substance or the reference substance, a mixture of 8-OH-DPAT ([…]) and the test substance or reference substance was administered, and the level of the induced inward K^+ current response was measured. The measurement results and the level of the current response in the same cell by 8-OH-DPAT alone were compared, based on which the antagonistic action on the 8-OH-DPAT induction current was considered. Every current response was expressed upon standardizing according to the following calculation equation based on the level of the 8-OH-DPAT (10^−7 mol/L) induction current in the same cell.
The inward K^+ current response inducing action (5-HT1A agonistic action) by the test substance alone was determined from the following equation. inward K^+ current response inducing action (%) by test substance alone=(ITD÷IDPAT)×100 • ITD: level of inward K^+ current response by test substance alone • IDPAT: level of 8-OH-DPAT (10^−7 mol/L) induced inward K^+ current in the same cell
The suppressive effect (5-HT1A antagonistic action) on the 8-OH-DPAT induced inward K^+ current by the test substance was determined according to the following equation. antagonistic action of test substance on 8-OH-DPAT induced inward K^+ current (% of control)=(IMIX÷IDPAT)×100
IMIX: level of 8-OH-DPAT (10^−7 mol/L) induced inward K^+ current in the presence of test substance

Another assay deals with T2, 5-HT transporter (Rattus norvegicus, UniProt P31652).
T2 construct: Rat brain cortex was homogenized using Polytron; from tissue; host or cells: rat brain cortex membranes
As to the kind of experiment: 5-HT transporter binding test. How it is done:
Rat brain cortex was homogenized using Polytron in ice-cooled 50 mmol/L Tris-HCl buffer (pH 7.4). After centrifugation at 1000×g and 4° C. for 10 min, the supernatant was transferred to a different centrifugation tube. This was centrifuged at 40000×g and 4° C. for 20 min, and 50 mmol/L Tris-HCl buffer (pH 7.4) was added to the sediment to give a suspension. This was incubated at 37° C. for 10 min, centrifuged at 40000×g and 4° C. for 20 min, and suspended in 50 mmol/L Tris-HCl buffer (pH 7.4) (diluted 100-fold of brain wet weight) containing 120 mmol/L NaCl and 5 mmol/L KCl, which was used as a membrane solution. For binding inhibition test, it was reacted with (^3H) paroxetine prepared to the final concentration of 0.2 nmol/L in a plastic test tube at 25° C. for 90 min. For total binding, a solvent was used and for nonspecific binding, fluvoxamine having a final concentration of 10 μmol/L was used.
Using a cell harvester, the reaction mixture was filtered through a GF/B glass filter treated with 0.1% polyethyleneimine to stop the reaction and washed 3 times with 3 mL of ice-cooled 50 mmol/L Tris-HCl buffer (pH 7.4). The radioactivity was measured using a β plate.

Structures can show the parent of a compound that is named as a salt. Where two headings read alike, the source gives them in different places.

T2 sequence (P31652 whole entry): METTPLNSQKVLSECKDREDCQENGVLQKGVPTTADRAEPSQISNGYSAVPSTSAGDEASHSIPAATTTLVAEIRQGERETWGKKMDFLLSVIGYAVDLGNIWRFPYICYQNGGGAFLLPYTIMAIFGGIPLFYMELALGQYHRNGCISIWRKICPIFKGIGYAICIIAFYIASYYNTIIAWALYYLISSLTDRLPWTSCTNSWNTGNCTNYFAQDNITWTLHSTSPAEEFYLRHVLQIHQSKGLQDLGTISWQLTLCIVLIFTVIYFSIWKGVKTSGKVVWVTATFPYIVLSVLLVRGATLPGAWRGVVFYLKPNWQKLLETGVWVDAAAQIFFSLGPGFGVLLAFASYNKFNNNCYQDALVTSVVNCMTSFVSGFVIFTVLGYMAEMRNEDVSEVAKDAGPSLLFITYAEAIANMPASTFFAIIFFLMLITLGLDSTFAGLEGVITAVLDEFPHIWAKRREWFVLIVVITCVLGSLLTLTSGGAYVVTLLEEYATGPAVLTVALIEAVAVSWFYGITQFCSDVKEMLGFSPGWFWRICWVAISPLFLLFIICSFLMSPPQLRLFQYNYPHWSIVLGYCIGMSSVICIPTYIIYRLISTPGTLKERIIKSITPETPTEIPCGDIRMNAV

For the compound `CC(C)c1nnc(-c2cc3c(OC[C@@H](O)CN4CCC(c5ccc6c(c5)OCO6)CC4)cccc3o2)o1` [Example 138, (S)-1-(2-(5-(1-methylethyl)-1,3,4-oxadiazol-2-yl)benzo(b)furan-4-yloxy)-3-(4-(3,4-methylenedioxyphenyl)piperidino)-2-propanol hydrochloride], on 5-HT1A receptor [1] (rat hippocampus membrane, (3H)-8-OH-DPAT 2 nM, read-out: 5-HT1A receptor binding Ki value), the inhibition constant Ki amounted to 0.68 nM. For the same compound, the “antagonistic action (% of control) of the test substance on the 8-OH-DPAT induced inward K+ current” value on 5-HT1A receptor [2] (8-OH-DPAT 10^−7 mol/L) was “almost nil”. Moreover, on 5-HT1A receptor [2], the “agonist/antagonist character at 5-HT1A receptor” value is “silent antagonists” and the “inward K+ current inducing action (%) by the test substance alone” value was “almost nil”. The Ki at 5-HT transporter (rat brain cortex membrane, (3H) paroxetine 0.2 nmol/L, read-out: 5-HT transporter binding Ki value) was found to be 1.6 nM.
Regarding `O[C@H](COc1cccc2[nH]ccc12)CN1CCC(O)(c2ccc3ccccc3c2)CC1` [compound for reference, (S)-1-(4-indolyloxy)-3-[4-hydroxy-4-(2-naphthyl)piperidino]propan-2-ol, reference compound], the Ki is 0.16 nM at 5-HT1A receptor [1] and 55 nM at 5-HT transporter. Besides, the “agonist/antagonist character at 5-HT1A receptor” value at 5-HT1A receptor [2] is given as “partial agonist”.

The Ki is the dissociation constant of the complex between target and ligand, obtained from inhibition or displacement.

The record behind these values is patent publication US7196199B2, “Phenoxypropylamine compounds” (Mitsubishi Pharma Corporation, priority 1999, dated 2007).
